Measurements: paper PMC2193020 (The Journal of Experimental Medicine, 1999)
pIC50: −log10 of the molar value. Ends that are not written are not given here.

Assays:
I-A^s = target: T1, I-A^s (Mus musculus, UniProt P06345+P14437); assay: Class II peptide binding assay on purified I-A^s molecules
T1 sequence (P14437 1-233): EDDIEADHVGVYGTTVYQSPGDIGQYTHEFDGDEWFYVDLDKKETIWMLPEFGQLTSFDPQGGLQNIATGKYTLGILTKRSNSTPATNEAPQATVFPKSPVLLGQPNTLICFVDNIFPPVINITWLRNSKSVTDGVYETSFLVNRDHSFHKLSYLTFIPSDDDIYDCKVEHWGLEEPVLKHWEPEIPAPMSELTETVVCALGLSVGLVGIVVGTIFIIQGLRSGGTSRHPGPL
T1 sequence (P06345 28-263): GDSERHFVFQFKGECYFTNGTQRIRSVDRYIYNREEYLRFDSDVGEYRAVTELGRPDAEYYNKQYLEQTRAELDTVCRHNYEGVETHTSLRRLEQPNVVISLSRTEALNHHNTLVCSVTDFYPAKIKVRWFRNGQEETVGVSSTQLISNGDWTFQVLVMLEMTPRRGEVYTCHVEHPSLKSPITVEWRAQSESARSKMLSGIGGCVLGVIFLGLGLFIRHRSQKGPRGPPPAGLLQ

[1] = tested on: MBP autoantibodies affinity-purified from CNS lesions; settings: autoantibodies from CNS lesions of 12 postmortem MS cases; ref [19], [21]; cited from earlier work

Row | Compound | pIC50 (I-A^s) | Inhibition of autoantibody binding to MBP [1]
1 | IGGRVHFFRDISPIG [HPV 40] | 6.74 | 
2 | CC[C@H](C)[C@H](NC(=O)[C@H](CC(N)=O)NC(=O)[C@H](CCCCN)NC(=O)[C@H](Cc1ccccc1)NC(=O)[C@H](Cc1ccccc1)NC(=O)[C@H](Cc1c[nH]cn1)NC(=O)[C@@H](NC(=O)[C@@H](NC(=O)[C@@H]1CCCN1C(=O)[C@H](CC(N)=O)NC(=O)[C@@H](N)CCC(=O)O)C(C)C)C(C)C)C(=O)N[C@H](C(=O)N[C@H](C(=O)N1CCC[C@H]1C(=O)N[C@@H](CCCNC(=N)N)C(=O)O)[C@@H](C)O)C(C)C [MBPp85–99, reference compound] | 6.18 | 
3 | IGGRVHFFKDISPIA [HPV 7] | 6.68 | 
4 | CC(C)C[C@H](NC(=O)[C@H](CCCNC(=N)N)NC(=O)[C@H](CCCNC(=N)N)NC(=O)CNC(=O)CN)C(=O)N[C@@H](Cc1ccccc1)C(=O)N[C@@H](Cc1ccccc1)C(=O)N[C@H](C(=O)N[C@@H](CCCCN)C(=O)N[C@@H](C)C(=O)N[C@@H](Cc1c[nH]cn1)C(=O)N[C@H](C(=O)N[C@@H](CCCNC(=N)N)C(=O)N[C@@H](CCC(=O)O)C(=O)O)C(C)C)C(C)C [Herpes simplex DNA pol] | 6.26 | 
5 | VHFFKNIVTPRTP [MBPp87–99] |  | > 95%
